Laboratory results from US11535670B2, “Combination therapies of HDAC inhibitors and PD-L1 inhibitors” (HUYABIO International, LLC, priority 2016, dated 2022).

Experiments:
HDAC 11 = target: T1, HDAC 11 (Homo sapiens, UniProt Q96DB2); conditions: cited from earlier work
T1 sequence (Q96DB2 1-347): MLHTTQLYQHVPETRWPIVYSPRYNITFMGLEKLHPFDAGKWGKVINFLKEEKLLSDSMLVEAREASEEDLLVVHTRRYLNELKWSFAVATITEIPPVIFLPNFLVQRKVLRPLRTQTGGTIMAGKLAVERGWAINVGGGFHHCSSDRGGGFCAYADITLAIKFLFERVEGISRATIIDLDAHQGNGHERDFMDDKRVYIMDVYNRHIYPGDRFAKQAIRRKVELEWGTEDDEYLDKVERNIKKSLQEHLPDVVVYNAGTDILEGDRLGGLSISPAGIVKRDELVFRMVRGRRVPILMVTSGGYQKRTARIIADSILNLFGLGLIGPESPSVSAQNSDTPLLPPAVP

[1] = system: MC38 murine colon carcinoma; test: Example 3: second-line therapy of MC38 tumors progressing after first-line PD-1 inhibitor antibody, response rates; assay type: in vivo, C57BL/6 mice; conditions: second-line after failing PD-1 inhibitor antibody; HBI-8000 50 mg/kg p.o. qd×21; antibodies 5 mg/kg i.p. biwk×2 (Table 4: biwk × 3)
Excerpt: In this model, a proportion of the animals treated 1st line with the PD-1 checkpoint inhibitor antibody experience complete tumor regression. However, a similar proportion of animals treated 1st line with the PD-1 inhibitor antibody experience rapid tumor progression. The balance of the animals treated in this way experience slow tumor progression or stable disease, which is a result which approximates the situation in a number of human cancer patients receiving PD-1 inhibitor antibody therapy, i.e., they experience a transient partial response, including stable disease, but then develop resistance and rapidly progress, failing PD-1 inhibitor antibody therapy. In this example, the efficacy of HBI-8000 (DZ1) as a second-line therapy, alone and in combination with PDL-1 inhibitor antibody 10F.9G2 (anti-PDL-1), was evaluated for the ability to cause tumor growth delay (TGD) in animals which tumors progressed following PD-1 inhibitor antibody first line of therapy in the MC38 murine colon carcinoma syngeneic model in immunocompetent C57BL/6 mice.
Female C57BL/6 mice bearing subcutaneous MC38 tumors (mean tumor volume: 114 mm^3 when treatment began) were treated with a first line of therapy of PD-1 inhibitor antibody treatment, administered intraperitoneally (i.p.) at 5 mg/kg, twice weekly for two weeks (biwk×2). […] Dosing began on Dl, which represented the day of recruitment and varied among mice (this was normalized for each group). The second line therapies were as follows. Vehicle was administered orally (p.o.). HBI-8000 was administered p.o. at 50 mg/kg. PD-1 inhibitor antibody and anti-PDL-1 were each administered intraperitoneally (i.p) at 5 mg/kg. Group 1 mice served as controls and received 0.2% carboxymethyl cellulose: 0.1% Tween 80 in deionized water (vehicle) once daily for twenty-one days (qd×21). Group 2 received HBI-8000 qd×21. Group 3 received a second course of PD-1 inhibitor antibody biwk×2. Group 4 received HBI-8000 qd×21 and PD-1 inhibitor antibody biwk×2. Group 5 received anti-PDL-1 biwk×2. Group 6 received HBI-8000 qd×21 and anti-PDL-1 biwk×2. […]

Nc1cc(F)ccc1NC(=O)c1ccc(CNC(=O)/C=C/c2cccnc2)cc1 [HBI-8000, N-(2-amino-4-fluorophenyl)-4-[[[(2E)-1-oxo-3-(3-pyridinyl)-2-propen-1-yl]amino]methyl]benzamide]
activity at HDAC 11 (HDAC 11): has activity
activity at HDAC 11 compared with Entinostat (HDAC 11; versus Entinostat): more active than Entinostat
Response rate: CR (complete response) [1]: 20%
Response rate: NR (no response) [1]: 40%
Response rate: PR (partial response) [1]: 40%
